pIC50: −log10 of the molar value.
Columns and labels:
PS19 mice [1] = assay: Morris water maze in P301S Tau (PS19) transgenic mice; assay type: in vivo, mouse; conditions: 8-month-old PS19 mice, 6 months of treatment, 5 mg/kg/d in diet
Description: FIGS. 11A-11C illustrate that Fyn kinase inhibition prevents memory deficits in P301S Tau transgenic tice. FIG. 11A: Timeline of PS19 mouse treatment. FIG. 11B: Morris water maze probe trial for 8-month-old PS19 or WT mice after 6 months of AZD0530 or Vehicle treatment. Twenty four hours after the reverse learning trials in the Morris water maze, the submerged platform was removed and the fraction of 60 sec spent in the target quadrant where the hidden platform had been located previously was recorded. n=11-15/group, each dot is one mouse. Data are mean±SEM. Dashed line indicates random chance performance. […] Latency was measured as the time for the mouse to cross to the opaque box. n=16-18/group. […]
To generate chow containing chow for chronic dosing, the compound was incorporated into purified diet pellets by Research Diets, Inc. by dissolving the compound in a solution of 0.5% w/v Hydroxypropylmethylcellulose/0.1% w/v polysorbate 80 at 1.429 mg/ml. […] The dosage of the drug in the food was calculated to take into account the average amount of food eaten by a mouse in a single day per kg of weight and adjusted to be equivalent to ingesting 5 mg/kg per day.
The Morris water maze paradigm was performed as previously described (Kaufman et al., 2015, Ann Neurol 77:953-971). […] Latency was measured as the time that it took for the mouse to find and spend 1 second on the hidden platform. […]

[2] = tested on: APPswe/PS1ΔE9 transgenic mice; assay: Novel Object Recognition in AD transgenic mice; assay type: in vivo, mouse; conditions: 5 weeks treatment
[3] = dog, 6 month study, cited from earlier work
Src, Fyn, Yes and Lyn = conditions: blocking Src, read-out: potency; cited from earlier work
[4] = Saracatinib drug levels in mouse brain, plasma and CSF (LC/MS/MS); assay type: in vivo; conditions: 5 mg/kg/d; for peak CSF level / trough CSF level: one pooled sample
Procedure: Data are mean±sem for separate mice for all points except CSF where samples pooled.
In an initial cohort after 6 doses, samples were collected 30-60 minutes after dosing to obtain a peak level (FIG. 6). Drug levels were measured with an LC/MS/MS method validated for clinical samples.

[5] = Dog toxicology studies (6 month and nine-month); assay type: in vivo
Description: The body weight of dogs treated with different doses of saracatinib was plotted as a function of time. There were a […] (4 female and 4 male in each group), but a single sex (male) is shown here because the weight range is different between sexes. The trend for female dogs is similar but not shown. Values are mean±sem.

PS19 mice [6] = assay: Passive avoidance test in PS19 mice; assay type: in vivo, mouse; conditions: 8-month-old PS19 mice, 6 months of treatment
Description: FIGS. 11A-11C illustrate that Fyn kinase inhibition prevents memory deficits in P301S Tau transgenic tice. FIG. 11A: Timeline of PS19 mouse treatment. FIG. 11B: Morris water maze probe trial for 8-month-old PS19 or WT mice after 6 months of AZD0530 or Vehicle treatment. Twenty four hours after the reverse learning trials in the Morris water maze, the submerged platform was removed and the fraction of 60 sec spent in the target quadrant where the hidden platform had been located previously was recorded. n=11-15/group, each dot is one mouse. Data are mean±SEM. Dashed line indicates random chance performance. Two-way ANOVA reveal an interaction between genotype and treatment (p=0.014). *p<0.05; Sidak's post-hoc multiple comparisons test. FIG. 11C: Passive avoidance test for 8-month-old PS19 and WT mice after 6 months of treatment with AZD0530 or Vehicle. Latency was measured as the time for the mouse to cross to the opaque box. n=16-18/group. Wilcoxon match-pairs signed test; (WT, Vehicle: p=0.0007; WT, AZD0530: p<0.0001; […]; PS19, AZD0530: p=0.0126.)
A Passive Avoidance Controller CAT 7551 was used to conduct the passive avoidance test as previously described (Gimbel et al., 2010, J Neurosci 30:6367-6374) with slight modifications. The door delay was set to 90 seconds, and the shock intensity was set to 0.5 mA with a shock duration of 2 seconds. […]

[7] = tested on: APPswe/PS1ΔE9 transgenic mice; assay: Morris water maze in AD transgenic mice
Procedure: Spatial learning is plotted as latency to find a hidden platform in a Morris water maze at age 11-12 months. […] Mean±SEM for the indicated numbers of mice per genotype/treatment group.
Memory performance during a 60 sec probe trial, 24 hr after learning, where time spent in the target quadrant was measured. Random chance is 15 sec. Mean±SEM for n=9-14 in each group.
The dosing was on a twice a day schedule by oral gavage and control groups received vehicle. The identity of the active versus vehicle groups and the transgene status was unknown to the researchers handling the mice and collecting the behavioral data. […] The data from the two cohorts were pooled. Different tests were performed at 1-3 weeks (early) or 4-6 weeks (late) time points. Mice were tested in the Morris water maze at both ages, and also in Novel Object Recognition tests at the later time points. After memory testing was complete, the animals were sacrificed without ceasing their drug regimen for histological analysis.
After the learning trials, the mice were tested the subsequent day in a memory test, the 60 second probe trial with the hidden platform removed (FIG. 4). Random chance results in 15 sec occupancy in each quadrant.

In the case of `CN1CCN(CCOc2cc(OC3CCOCC3)c3c(Nc4c(Cl)ccc5c4OCO5)ncnc3c2)CC1` [saracatinib, N-(5-chloro-benzo[d][1,3]dioxol-4-yl)-7-(2-(4-methylpiperazin-1-yl)ethoxy)-5-(tetrahydro-2H-pyran-4-yloxy)quinazolin-4-amine], the “probe trial after reverse learning, time in target quadrant” value (PS19 mice [1]) is given as “significantly improved the memory deficit”, the “Novel Object Recognition performance” value [2] is given as “performance equal to the WT mice” and the toxicity ([3]; 5 mg/kg/d) is given as “mild GI toxicity”. The NOAEL [3] was 0.5 mg/kg/day, the pIC50 (Src, Fyn, Yes and Lyn) was 8.00 to 8.70 and the peak brain level [4] was 50 nM. For the same compound, the trough brain level ([4]; 5 mg/kg/day) was 19 to 46 nM, the peak brain level ([4]; as free base) was 27 ng/g and the “peak CSF level” value [4] was 13 nM. For the same compound, the “trough CSF level” value [4] was 8.9 nM, the “peak CSF level” value ([4]; as free base) was 7 ng/mL and the “trough CSF level” value ([4]; as free base) was 4.6 ng/mL. For the same compound, the body weight ([5]; nine-month study) was “continued weight gain”, the adverse symptoms ([5]; nine-month study, 0.5, 2 and 5 mg/kg/d, at 8.75 months) was “no obvious adverse symptoms” and the “passive avoidance at 24 hours” value (PS19 mice [6]) was “exhibited passive avoidance”. The “latency to hidden platform (learning trials)” value ([7]; APPswe/PS1ΔE9 mice, 5 mg/kg/d b.i.d. oral gavage, 4-5 weeks) was “eliminated the transgenic deficit”, the “probe trial, preference for target quadrant” value ([7]; APPswe/PS1ΔE9 mice, 5 mg/kg/d, 5 weeks) was “same strong preference for the target quadrant as did WT mice” and the “learning and memory tests” value ([7]; shorter treatment duration or lesser doses) was “did not have significant effects”. The “probe trial, time in target quadrant” value ([7]; wild type mice with or without 5 weeks saracatinib, 60 second trial, chance 15 sec) was about 30 s and the “latency to hidden platform (learning trials)” value ([7]; wild type mice, 5 mg/kg/d) was “not altered”.

From patent US11241434B2, “Compositions and methods for improving cognition in a subject” (Yale University, priority 2013, dated 2022)
